Tested on: Transport facilitation protein genes
Assay: DNA chip mRNA expression in yeast, transport facilitation protein genes (Table 5)
Assay type: cell-based, Saccharomyces cerevisiae S288C
Summary of the method: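 First, S288C yeast grown in YPD at 25° C. are dosed in log phase with one toxicant (growth-inhibiting, not lethal) for 2 h. Next, total RNA is extracted and poly(A) mRNA isolated and reverse-transcribed with Cy3/Cy5-dUTP. Finally, whole-genome chip fluorescence is read relative to unexposed cells.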

**Q.** Which results are given for `N#Cc1c(Cl)c(Cl)c(Cl)c(C#N)c1Cl` [(9), 2,4,5,6-tetrachloro-1,3-benzenedicarbonitrile]?
**A.** The level of expressed mRNA in the presence of chemical substance/The level of expressed mRNA in the absence of chemical substance (yeast gene YGR260W): 0.3; The level of expressed mRNA in the presence of chemical substance/The level of expressed mRNA in the absence of chemical substance (yeast gene YGR281W): 2.7; The level of expressed mRNA in the presence of chemical substance/The level of expressed mRNA in the absence of chemical substance (yeast gene YHL035C): 0.6; The level of expressed mRNA in the presence of chemical substance/The level of expressed mRNA in the absence of chemical substance (yeast gene YHL040C): 1.1; The level of expressed mRNA in the presence of chemical substance/The level of expressed mRNA in the absence of chemical substance (yeast gene YHL047C): 1.2; The level of expressed mRNA in the presence of chemical substance/The level of expressed mRNA in the absence of chemical substance (yeast gene YHR026W): 1.1; The level of expressed mRNA in the presence of chemical substance/The level of expressed mRNA in the absence of chemical substance (yeast gene YHR092C): 0.2; The level of expressed mRNA in the presence of chemical substance/The level of expressed mRNA in the absence of chemical substance (yeast gene YHR094C): 0.3; The level of expressed mRNA in the presence of chemical substance/The level of expressed mRNA in the absence of chemical substance (yeast gene YHR175W): 0.6; The level of expressed mRNA in the presence of chemical substance/The level of expressed mRNA in the absence of chemical substance (yeast gene YIL006W): 0.9; The level of expressed mRNA in the presence of chemical substance/The level of expressed mRNA in the absence of chemical substance (yeast gene YIL022W): 1.1; The level of expressed mRNA in the presence of chemical substance/The level of expressed mRNA in the absence of chemical substance (yeast gene YIL056W): 1.2; The level of expressed mRNA in the presence of chemical substance/The level of expressed mRNA in the absence of chemical substance (yeast gene YIL088C): 1.0; The level of expressed mRNA in the presence of chemical substance/The level of expressed mRNA in the absence of chemical substance (yeast gene YJL034W): 2.8; The level of expressed mRNA in the presence of chemical substance/The level of expressed mRNA in the absence of chemical substance (yeast gene YJL212C): 1.1; The level of expressed mRNA in the presence of chemical substance/The level of expressed mRNA in the absence of chemical substance (yeast gene YJL219W): 4.0; The level of expressed mRNA in the presence of chemical substance/The level of expressed mRNA in the absence of chemical substance (yeast gene YJR077C): 0.4; The level of expressed mRNA in the presence of chemical substance/The level of expressed mRNA in the absence of chemical substance (yeast gene YJR106W): 2.0; The level of expressed mRNA in the presence of chemical substance/The level of expressed mRNA in the absence of chemical substance (yeast gene YJR121W): 0.8; The level of expressed mRNA in the presence of chemical substance/The level of expressed mRNA in the absence of chemical substance (yeast gene YKL016C): 1.3; The level of expressed mRNA in the presence of chemical substance/The level of expressed mRNA in the absence of chemical substance (yeast gene YKL146W): 4.6; The level of expressed mRNA in the presence of chemical substance/The level of expressed mRNA in the absence of chemical substance (yeast gene YKR039W): 1.9; The level of expressed mRNA in the presence of chemical substance/The level of expressed mRNA in the absence of chemical substance (yeast gene YKR067W): 1.6; The level of expressed mRNA in the presence of chemical substance/The level of expressed mRNA in the absence of chemical substance (yeast gene YKR105C): 1.0; The level of expressed mRNA in the presence of chemical substance/The level of expressed mRNA in the absence of chemical substance (yeast gene YLL028W): 1.2; The level of expressed mRNA in the presence of chemical substance/The level of expressed mRNA in the absence of chemical substance (yeast gene YLR081W): 0.1; The level of expressed mRNA in the presence of chemical substance/The level of expressed mRNA in the absence of chemical substance (yeast gene YLR295C): 1.4; The level of expressed mRNA in the presence of chemical substance/The level of expressed mRNA in the absence of chemical substance (yeast gene YLR348C): 2.1; The level of expressed mRNA in the presence of chemical substance/The level of expressed mRNA in the absence of chemical substance (yeast gene YLR378C): 1.1; The level of expressed mRNA in the presence of chemical substance/The level of expressed mRNA in the absence of chemical substance (yeast gene YMR011W): 0.0; The level of expressed mRNA in the presence of chemical substance/The level of expressed mRNA in the absence of chemical substance (yeast gene YMR162C): 0.7; The level of expressed mRNA in the presence of chemical substance/The level of expressed mRNA in the absence of chemical substance (yeast gene YMR203W): 0.7; The level of expressed mRNA in the presence of chemical substance/The level of expressed mRNA in the absence of chemical substance (yeast gene YNL055C): 1.1; The level of expressed mRNA in the presence of chemical substance/The level of expressed mRNA in the absence of chemical substance (yeast gene YNL259C): 1.6; The level of expressed mRNA in the presence of chemical substance/The level of expressed mRNA in the absence of chemical substance (yeast gene YNR072W): 0.7; The level of expressed mRNA in the presence of chemical substance/The level of expressed mRNA in the absence of chemical substance (yeast gene YOL119C): 5.0; The level of expressed mRNA in the presence of chemical substance/The level of expressed mRNA in the absence of chemical substance (yeast gene YOL156W): 2.3; The level of expressed mRNA in the presence of chemical substance/The level of expressed mRNA in the absence of chemical substance (yeast gene YOL163W): 7.5; The level of expressed mRNA in the presence of chemical substance/The level of expressed mRNA in the absence of chemical substance (yeast gene YOR035C): 1.3; The level of expressed mRNA in the presence of chemical substance/The level of expressed mRNA in the absence of chemical substance (yeast gene YOR130C): 2.0; The level of expressed mRNA in the presence of chemical substance/The level of expressed mRNA in the absence of chemical substance (yeast gene YOR153W): 3.2; The level of expressed mRNA in the presence of chemical substance/The level of expressed mRNA in the absence of chemical substance (yeast gene YOR270C): 0.4; The level of expressed mRNA in the presence of chemical substance/The level of expressed mRNA in the absence of chemical substance (yeast gene YOR273C): 0.6; The level of expressed mRNA in the presence of chemical substance/The level of expressed mRNA in the absence of chemical substance (yeast gene YOR316C): 1.6; The level of expressed mRNA in the presence of chemical substance/The level of expressed mRNA in the absence of chemical substance (yeast gene YOR332W): 1.8; The level of expressed mRNA in the presence of chemical substance/The level of expressed mRNA in the absence of chemical substance (yeast gene YOR348C): 0.5; The level of expressed mRNA in the presence of chemical substance/The level of expressed mRNA in the absence of chemical substance (yeast gene YPL036W): 0.1; The level of expressed mRNA in the presence of chemical substance/The level of expressed mRNA in the absence of chemical substance (yeast gene YPL134C): 0.6; The level of expressed mRNA in the presence of chemical substance/The level of expressed mRNA in the absence of chemical substance (yeast gene YPL265W): 0.2; The level of expressed mRNA in the presence of chemical substance/The level of expressed mRNA in the absence of chemical substance (yeast gene YPL271W): 0.6; The level of expressed mRNA in the presence of chemical substance/The level of expressed mRNA in the absence of chemical substance (yeast gene YPR192W): 0.7; The level of expressed mRNA in the presence of chemical substance/The level of expressed mRNA in the absence of chemical substance (yeast gene YPR194C): 0.5

— patent US8192962B2, “Processes for detecting toxic substances” (Daikin Industries, Ltd., priority 2001, dated 2012)
